SMILES strings stand for the structures. Where two headings read alike, the source gives them in different places.

One may read the IC50 as the concentration that gives 50% inhibition.

The test system of assay [1] is carrageenan-induced rat paw edema. The experiment in a line: Carrageenan-induced acute inflammation (rat paw edema). It is filed as in vivo, Wistar albino rats. Conditions: 10 mg/kg p.o. Here is the method:
The acute anti-inflammatory activity of EAFMB was evaluated using the carrageenan-induced rat paw edema model. Experimental animals were randomly divided into four groups, with six animals in each group. Group I (the control group) received a vehicle (1% CMC). […] Groups III and IV (test group) were given EAFMB at 100 and 200 mg/kg p.o doses, respectively. The drugs were administered orally 1 h before the carrageenan injection. The 0.1 mL of freshly prepared carrageenan suspension was injected into the left hind paw of each rat. The paw volume was measured using a Plethysmometer (Ugo Basile 2470, Italy) at 1, 2, 3, 4, 5, and 6 h after carrageenan administration. The results were expressed as a percentage of the increase in paw swelling and a percentage of the inhibition of paw swelling compared to the initial hind paw thickness. % Increase in Paw Volume =Final Paw Volume at specific time point − Intial Paw Volume at 0 h/Intial Paw Volume at 0 h×100 % Inhibition=Paw Volume at of Control − Paw Volume of treated group/Intial Paw VoluPaw Volume at of Control me at 0 h×100

The test system of assay [2] is CFA-induced rat paw edema. The experiment in a line: CFA-induced chronic inflammation (rat paw oedema). To be noted: 10 mg/kg p.o. once daily. It is filed as in vivo, Wistar rats. Here is the method: (§1) The chronic anti-inflammatory activity of EAFMB was evaluated using the CFA-induced rat paw edema model. Wistar rats of either sex (180 to 200 g) were randomly divided into four groups, each comprising six animals. The control group (Group I) received only a vehicle (0.5% CMC, p.o.). […] Groups III to IV were treated with EAFMB (100 and 200 mg/kg, p.o., respectively) once daily for 21 days. On day 0, chronic inflammation, i.e., arthritis, was induced via injecting 0.1 mL of CFA containing 0.5% of dry heat-killed Mycobacterium tuberculosis in sterile paraffin oil into the sub-plantar region in the left hind paw of rats. The animals were evaluated for the following parameters: • % of a rise or inhibition of oedema
After the CFA injection, the paw oedema was measured using a plethysmograph on day 0 and thereafter on days 4, 8, 14, and 21. The results were expressed as the percent rise in and percent inhibition of paw oedema as per the formulae mentioned in the acute inflammation study. • Hematological Parameters

The subject of assay [3] is CFA-induced chronic inflammation rats. The experiment in a line: Hematological parameters in CFA-induced chronic inflammation. It is filed as in vivo, Wistar rats. Conditions: 10 mg/kg p.o. once daily for 21 days; blood on 21st day. The method, then:
as §1
On the 21st day, blood was withdrawn through a retro-orbital plexus puncture from all treated groups under light ether anesthesia. The hematological parameters like hemoglobin content, total WBC count, ESR, and RBC were analyzed using Yumizen H550, HORIBA Hematology Analyzer, France.

Another assay concerns the target T1, ovine COX-2 (Ovis aries, UniProt P79208).
T1 construct: purchased Cayman Chemical Co. 760111
T1 sequence (P79208 17-603): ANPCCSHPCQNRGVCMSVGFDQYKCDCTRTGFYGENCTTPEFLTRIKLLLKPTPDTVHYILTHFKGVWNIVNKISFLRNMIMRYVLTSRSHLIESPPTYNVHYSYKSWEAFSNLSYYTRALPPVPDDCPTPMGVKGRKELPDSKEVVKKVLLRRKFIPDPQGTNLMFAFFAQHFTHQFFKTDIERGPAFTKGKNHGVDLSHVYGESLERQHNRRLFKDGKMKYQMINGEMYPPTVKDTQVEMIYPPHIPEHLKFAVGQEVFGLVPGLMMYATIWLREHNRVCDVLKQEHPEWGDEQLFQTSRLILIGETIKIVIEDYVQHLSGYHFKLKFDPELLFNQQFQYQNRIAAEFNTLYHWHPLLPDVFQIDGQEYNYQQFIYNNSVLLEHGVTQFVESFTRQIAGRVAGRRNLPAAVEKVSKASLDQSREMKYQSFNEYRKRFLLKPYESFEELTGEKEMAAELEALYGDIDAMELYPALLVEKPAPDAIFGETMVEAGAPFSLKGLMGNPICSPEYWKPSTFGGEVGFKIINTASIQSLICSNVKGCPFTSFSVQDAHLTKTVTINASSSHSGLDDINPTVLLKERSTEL
Put plainly: Colorimetric COX (ovine) inhibitor screening assay, COX-2. It is filed as biochemical. From the text:
(§2) The IC50 is the concentration of tested compounds calculated using the regression equation.

The target of a further assay is T2, ovine COX-1 (Ovis aries, UniProt P05979).
T2 construct: purchased Cayman Chemical Co. 760111
T2 sequence (P05979 25-600): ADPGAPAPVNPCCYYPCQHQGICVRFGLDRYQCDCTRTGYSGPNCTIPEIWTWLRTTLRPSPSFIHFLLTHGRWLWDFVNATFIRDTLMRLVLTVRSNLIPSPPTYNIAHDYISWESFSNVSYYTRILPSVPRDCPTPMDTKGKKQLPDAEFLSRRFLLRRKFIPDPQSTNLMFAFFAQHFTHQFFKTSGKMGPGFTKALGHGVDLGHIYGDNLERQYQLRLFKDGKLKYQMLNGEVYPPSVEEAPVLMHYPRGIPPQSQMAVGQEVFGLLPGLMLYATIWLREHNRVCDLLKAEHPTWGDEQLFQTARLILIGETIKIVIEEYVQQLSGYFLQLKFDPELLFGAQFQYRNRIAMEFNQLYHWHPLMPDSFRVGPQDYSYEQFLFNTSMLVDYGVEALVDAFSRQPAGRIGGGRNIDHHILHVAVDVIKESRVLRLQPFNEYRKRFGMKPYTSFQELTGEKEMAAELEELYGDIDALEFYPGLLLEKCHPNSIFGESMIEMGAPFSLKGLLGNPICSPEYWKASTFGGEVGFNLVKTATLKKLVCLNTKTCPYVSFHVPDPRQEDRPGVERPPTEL
Put plainly: Colorimetric COX (ovine) inhibitor screening assay, COX-1. It is filed as biochemical.
Description: as §2

Consider `COc1ccc2c(c1)c(CC(=O)O)c(C)n2C(=O)c1ccc(Cl)cc1` [Indomethacin, indomethacin], for which the “% Inhibition of paw oedema” value stood at 27.78% in assay [1] (1 h after carrageenan); 56.84% in assay [1] (2 h after carrageenan); 57.97% in assay [1] (3 h after carrageenan); 59.39% in assay [1] (4 h after carrageenan); 54.37% in assay [1] (5 h after carrageenan); 48.18% in assay [1] (6 h after carrageenan). For the same molecule, the “% Inhibition of paw oedema” value in assay [2] (4th day after CFA) worked out at 46.78%; in assay [2] (8th day after CFA), 70.16%; in assay [2] (14th day after CFA), 84.48%; in assay [2] (21st day after CFA), 87.35%. The “% Rise in Paw Oedema” value is listed as 14.28 ± 0.42% in assay [1] (1 h after carrageenan); 15.85 ± 0.41% in assay [1] (2 h after carrageenan); 18.19 ±0.36% in assay [1] (3 h after carrageenan); 21.01 ± 0.51% in assay [1] (4 h after carrageenan); 26.18 ± 0.63% in assay [1] (5 h after carrageenan); 31.2 ± 0.81% in assay [1] (6 h after carrageenan). Further, the “% Rise in Paw Oedema” value in assay [2] (4th day after CFA) is reported as 41.92 ± 1.46%; in assay [2] (8th day after CFA), 27.95 ± 1.58%; in assay [2] (14th day after CFA) it was 14.77 ± 1.39%; in assay [2] (21st day after CFA), 11.99 ± 0.89%. In assay [3], this molecule displayed an ESR of 5.42 ± 0.31 mm/h. This molecule also gave a Hb in assay [3] of 14.62 ± 0.27 g%. The same molecule registered an RBC in assay [3] of 9.58 ± 0.27 millions/cubic mm. Moreover, the WBC in assay [3] was 6.37 ± 0.36 *** 10^3/cubic mm.

On to `Oc1cc(O)c2c(c1)OC(c1ccc(O)c(O)c1)C(O)C2` (stereo not shown) [Catechin, catechin], for which the IC50 is 50.4 µM against ovine COX-2 and 9.02 µM against ovine COX-1.

Take `O=C(O)C=Cc1ccc(O)cc1` [P-hydroxycinnamic acid, p-hydroxycinnamic acid]: the IC50 at ovine COX-2 (ovine COX-2, colorimetric, TMPD 590 nm, read-out: COX Inhibition (IC50) COX-2) came to 246 µM; on ovine COX-1 (ovine COX-1, colorimetric, TMPD 590 nm, read-out: COX Inhibition (IC50) COX-1), 229 µM.
